Patent US7786141B2 (Vertex Pharmaceuticals Incorporated, priority 2004, dated 2010)
Where two headings read alike, the source gives them in different places.

Experiments:
M4 muscarinic receptor = molecular target: T1, M4 muscarinic receptor (Homo sapiens, UniProt P08173); test: Functional mobilization of intracellular calcium (FLIPR) in M4-CHO cells; assay type: cell-based
T1 construct: expressed in transfected cells; host or cells: CHO (M4-CHO)
T1 sequence (P08173 1-479): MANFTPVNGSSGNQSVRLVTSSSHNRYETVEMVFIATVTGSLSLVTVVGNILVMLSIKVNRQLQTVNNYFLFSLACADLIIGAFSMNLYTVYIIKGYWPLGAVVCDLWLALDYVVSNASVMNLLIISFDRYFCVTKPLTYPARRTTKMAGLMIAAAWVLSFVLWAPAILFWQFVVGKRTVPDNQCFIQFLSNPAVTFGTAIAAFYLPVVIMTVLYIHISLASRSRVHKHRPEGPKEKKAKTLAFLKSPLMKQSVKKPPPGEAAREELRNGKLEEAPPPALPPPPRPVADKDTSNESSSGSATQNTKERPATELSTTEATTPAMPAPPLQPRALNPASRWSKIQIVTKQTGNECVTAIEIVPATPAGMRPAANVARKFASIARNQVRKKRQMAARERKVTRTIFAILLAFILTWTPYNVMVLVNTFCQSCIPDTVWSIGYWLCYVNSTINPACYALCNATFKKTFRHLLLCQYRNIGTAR
How it was run: (§1)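 Intracellular calcium rise is measured by FLIPR fluorescence over 60 sec in CHO cells carrying human M1 or M4 receptors. Compounds are tested alone as agonists, or pre-incubated 15 min (or co-applied) ahead of carbachol at its EC80 to detect inhibition.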

M1 muscarinic receptor = molecular target: T2, M1 muscarinic receptor (Homo sapiens, UniProt P11229); test: Functional mobilization of intracellular calcium (FLIPR) in M1-CHO cells; assay type: cell-based
T2 construct: expressed in transfected cells; host or cells: CHO (M1-CHO)
T2 sequence (P11229 1-460): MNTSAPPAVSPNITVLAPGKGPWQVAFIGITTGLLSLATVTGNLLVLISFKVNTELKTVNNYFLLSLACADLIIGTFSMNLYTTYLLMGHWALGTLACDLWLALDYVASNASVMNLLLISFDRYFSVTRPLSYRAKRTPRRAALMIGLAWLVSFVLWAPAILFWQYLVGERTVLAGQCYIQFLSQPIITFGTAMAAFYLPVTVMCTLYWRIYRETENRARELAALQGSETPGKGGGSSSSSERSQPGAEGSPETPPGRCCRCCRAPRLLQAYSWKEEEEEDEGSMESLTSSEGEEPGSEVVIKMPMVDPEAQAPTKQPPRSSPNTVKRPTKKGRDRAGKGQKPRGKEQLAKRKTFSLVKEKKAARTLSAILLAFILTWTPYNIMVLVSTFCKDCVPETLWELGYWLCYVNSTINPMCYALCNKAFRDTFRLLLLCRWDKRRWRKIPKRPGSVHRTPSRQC
How it was run: as §1

[1] = Table 4, 100% efficacy is the maximum response obtained with the Carbachol control
[2] = Table 4, modulating M4 receptor
[3] = Table 4, modulating M1 receptor
[4] = 100% efficacy is the maximum response obtained with the Carbachol control, Table 5
[5] = CHO cells expressing M4, calcium mobilization, Table 5
[6] = CHO cells expressing M1, calcium mobilization, Table 5
[7] = M4 receptor, calcium mobilization
[8] = M4 receptor, calcium mobilization, read-out: M4 Efficacy
[9] = M1 receptor, calcium mobilization
[10] = M1 receptor, calcium mobilization, read-out: M1 Efficacy
[11] = Table 4, M4 receptor, calcium mobilization (FLIPR)
[12] = Table 4, M1 receptor, calcium mobilization (FLIPR)
[13] = M4-CHO cells, calcium mobilization (FLIPR)
[14] = M4-CHO cells, calcium mobilization (FLIPR), read-out: M4 Efficacy
[15] = M1-CHO cells, calcium mobilization (FLIPR)
[16] = M1-CHO cells, calcium mobilization (FLIPR), read-out: M1 Efficacy

Row | Structure (SMILES) | Emax (M4 muscarinic receptor; [1]) [%] | M4 Activity (M4 muscarinic receptor; [2]) | Emax (M1 muscarinic receptor; [1]) [%] | M1 Activity (M1 muscarinic receptor; [3]) | M4 Activity (M4 muscarinic receptor; [7]) | Emax (M4 muscarinic receptor; [8]) [%] | M1 Activity (M1 muscarinic receptor; [9]) | Emax (M1 muscarinic receptor; [10]) [%] | further results
1 | CCOC(=O)N1C2CCC1CC(N1CCC3(CC1)CN(C(C)=O)c1c(C)cccc13)C2 (stereo not drawn) [compound 444] | 25 to 100 | xx (activity was measured to be between 2.0 μM and 5.0 μM) | 25 to 100 | xx (activity was measured to be between 2.0 μM and 5.0 μM) |  |  |  |  | 
2 | CC(=O)N1CC2(CCN(C3CCC4(CC3)CC(C)=NO4)CC2)c2cc(F)ccc21 (stereo not drawn) [compound 1020] |  |  |  |  |  |  |  |  | Emax (M4 muscarinic receptor; [4]): < 25%; EC50 (M4 muscarinic receptor; [5]): 2 to 10 µM; Emax (M1 muscarinic receptor; [4]): 25 to 100%; EC50 (M1 muscarinic receptor; [6]): 2 to 10 µM
3 | CN(C)C(=O)N1CC2(CCN(C3CCN(C(=O)[C@H]4CCCO4)CC3)CC2)c2cc(F)ccc21 [compound 520] | < 25 | x (activity was measured to be greater than 5.0 μM) | 25 to 100 | x (activity was measured to be greater than 5.0 μM) |  |  |  |  | 
4 | c1ccc2c(c1)CCCC21CCN(C2C[C@@H]3CC[C@@H](C2)C3)CC1 (stereo partly drawn) [compound 657] | 25 to 100 | xxx (activity was measured to be less than 2.0 μM) | 25 to 100 | xx (activity was measured to be between 2.0 μM and 5.0 μM) |  |  |  |  | 
5 | CC(=O)N[C@H]1CC2(CCN(CC3CC4CCC3C4)C2)c2ccc(F)cc21 (stereo partly drawn) [compound 640] | 25 to 100 | xxx (activity was measured to be less than 2.0 μM) | 25 to 100 | xxx (activity was measured to be less than 2.0 μM) |  |  |  |  | 
6 | CCOC(=O)N1CCC(CN2CCC3(CC2)CN(C(C)=O)c2c(F)cccc23)CC1 [compound 307] |  |  |  |  | x (activity was measured to be greater than 1.0 μM) | < 65 | xx (activity was measured to be between 0.1 μM and 1.0 μM) | 65 to 85 | 
7 | Cc1cc(C(=O)N2CC3(CCN(C4CC5CCC(C4)N5C(=O)O[C@@H]4CCOC4)CC3)c3cc(F)ccc32)nn1C (stereo partly drawn) [compound 233] |  |  |  |  | xxx (activity was measured to be less than 0.1 μM) | > 85 | xxx (activity was measured to be less than 0.1 μM) | 65 to 85 | 
8 | CCCCNC(=O)N1CC2(CCN(C3CCN(C(=O)OCC)CC3)CC2)c2ccccc21 [compound 721] | 25 to 100 | xxx (activity was measured to be less than 2.0 μM) | 25 to 100 | xxx (activity was measured to be less than 2.0 μM) |  |  |  |  | 
9 | Cc1cc(C(=O)N2CCC(N3CCC4(CC3)CN(C(=O)N(C)C)c3ccc(F)cc34)CC2)nn1C [compound 898] | < 25 |  | < 25 |  |  |  |  |  | M4 Activity (M4 muscarinic receptor; [11]): x (activity was measured to be greater than 5.0 μM); M1 Activity (M1 muscarinic receptor; [12]): x (activity was measured to be greater than 5.0 μM)
10 | CN([C@H]1CC2(CCN(C[C@H]3C[C@H]4CC[C@H]3C4)CC2)c2ccccc21)S(C)(=O)=O [compound 357] |  |  |  |  | x (activity was measured to be greater than 1.0 μM) | < 65 | xx (activity was measured to be between 0.1 μM and 1.0 μM) | < 65 | 
11 | CCOC(=O)N1C2CCC1CC(CN1CCC3(CC1)CNc1ccc(C)cc13)C2 (stereo not drawn) [compound 332] |  |  |  |  | x (activity was measured to be greater than 1.0 μM) | < 65 | x (activity was measured to be greater than 1.0 μM) | < 65 | 
12 | Cc1ccc2c(c1)C1(CCN(C3CC4CCC3C4)CC1)CN2C(=O)c1snnc1C (stereo not drawn) [compound 982] | < 25 |  | < 25 |  |  |  |  |  | M4 Activity (M4 muscarinic receptor; [11]): x (activity was measured to be greater than 5.0 μM); M1 Activity (M1 muscarinic receptor; [12]): x (activity was measured to be greater than 5.0 μM)
13 | CC(=O)N[C@H]1CC2(CCN(C34CCCCC3C4)CC2)c2ccccc21 (stereo partly drawn) [compound 834] | 25 to 100 |  | 25 to 100 |  |  |  |  |  | M4 Activity (M4 muscarinic receptor; [11]): xxx (activity was measured to be less than 2.0 μM); M1 Activity (M1 muscarinic receptor; [12]): xxx (activity was measured to be less than 2.0 μM)
14 | CC(=O)N1CC2(CCN(C3CCN(C(=O)O[C@H]4CCOC4)CC3)CC2)c2cc(C)ccc21 [compound 398] |  |  |  |  |  |  |  |  | EC50 (M4 muscarinic receptor; [13]): > 1 µM; Emax (M4 muscarinic receptor; [14]): < 65%; EC50 (M1 muscarinic receptor; [15]): 0.1 to 1 µM; Emax (M1 muscarinic receptor; [16]): < 65%
15 | CCOC(=O)N1C2CCC1CC(N1CCC3(CC1)CN(C(C)=O)c1ccc(C)cc13)C2 (stereo not drawn) [compound 9] |  |  |  |  | x (activity was measured to be greater than 1.0 μM) | 65 to 85 | xxx (activity was measured to be less than 0.1 μM) | 65 to 85 | 
16 | O=C(N[C@H]1CC2(CCN(C3CCCCC3)CC2)c2ccccc21)c1ccoc1 [compound 801] | < 25 | x (activity was measured to be greater than 5.0 μM) | < 25 | x (activity was measured to be greater than 5.0 μM) |  |  |  |  | 
17 | CCOC(=O)N1CCC(N2CCC3(CC2)CN(c2cncnc2)c2ccccc23)CC1 [compound 905] | 25 to 100 |  | 25 to 100 |  |  |  |  |  | M4 Activity (M4 muscarinic receptor; [11]): xxx (activity was measured to be less than 2.0 μM); M1 Activity (M1 muscarinic receptor; [12]): xxx (activity was measured to be less than 2.0 μM)
18 | CC(=O)CN1CC2(CCN(C[C@@H]3C[C@H]4C=C[C@H]3C4)CC2)c2cc(F)ccc21 [compound 385] |  |  |  |  |  |  |  |  | EC50 (M4 muscarinic receptor; [13]): > 1 µM; Emax (M4 muscarinic receptor; [14]): < 65%; EC50 (M1 muscarinic receptor; [15]): 0.1 to 1 µM; Emax (M1 muscarinic receptor; [16]): 65 to 85%
19 | CC(=O)N[C@H]1CC2(CCN(C3CCC[C@@H](C)C3)CC2)c2ccccc21 (stereo partly drawn) [compound 358] |  |  |  |  | xx (activity was measured to be between 0.1 μM and 1.0 μM) | 65 to 85 | xxx (activity was measured to be less than 0.1 μM) | 65 to 85 | 
20 | CCNC(=O)N1C2CCC1CC(N1CCC3(CC1)COc1ccc(F)cc13)C2 (stereo not drawn) [compound 219] |  |  |  |  | x (activity was measured to be greater than 1.0 μM) | < 65 | x (activity was measured to be greater than 1.0 μM) | 65 to 85 | 
21 | COc1ccc(F)cc1N1CCC(N2CCC3(CC2)CN(C(=O)N(C)C)c2ccc(F)cc23)CC1 [compound 1030] |  |  |  |  |  |  |  |  | Emax (M4 muscarinic receptor; [4]): 25 to 100%; EC50 (M4 muscarinic receptor; [5]): 2 to 10 µM; Emax (M1 muscarinic receptor; [4]): 25 to 100%; EC50 (M1 muscarinic receptor; [6]): 2 to 10 µM
22 | COc1cc2c(cc1OC)C1(CCN(C3C4CC5CC(C4)CC3C5)CC1)C[C@@H]2NC(C)=O (stereo partly drawn) [compound 546] | 25 to 100 | x (activity was measured to be greater than 5.0 μM) | 25 to 100 | x (activity was measured to be greater than 5.0 μM) |  |  |  |  | 
23 | CC(=O)N[C@H]1CC2(CCN(CC3CCN(C(=O)O[C@@H]4CCOC4)CC3)CC2)c2ccccc21 [compound 684] | < 25 | x (activity was measured to be greater than 5.0 μM) | < 25 | x (activity was measured to be greater than 5.0 μM) |  |  |  |  | 
24 | CC(=O)N1CC2(CCN(C3CCN(c4ncc(C)s4)CC3)CC2)c2ccccc21 [compound 794] | < 25 | x (activity was measured to be greater than 5.0 μM) | < 25 | x (activity was measured to be greater than 5.0 μM) |  |  |  |  | 
25 | COC(=O)N1CCC(CN2CCC3(CC2)CN(C(C)=O)c2ccc(F)cc23)CC1 [compound 129] |  |  |  |  | x (activity was measured to be greater than 1.0 μM) | < 65 | xxx (activity was measured to be less than 0.1 μM) | 65 to 85 | 
26 | CCCC1CCC(N2CCC3(CC2)C[C@H](NC(C)=O)c2ccccc23)CC1 (stereo partly drawn) [compound 15] |  |  |  |  | xx (activity was measured to be between 0.1 μM and 1.0 μM) | > 85 | xxx (activity was measured to be less than 0.1 μM) | 65 to 85 | 
27 | O=C(N[C@H]1CC2(CCN([C@@H]3C[C@@H]4CC[C@@H]3C4)CC2)c2ccccc21)c1ccoc1 [compound 868] | 25 to 100 |  | < 25 |  |  |  |  |  | M4 Activity (M4 muscarinic receptor; [11]): xxx (activity was measured to be less than 2.0 μM); M1 Activity (M1 muscarinic receptor; [12]): x (activity was measured to be greater than 5.0 μM)
